ChEMBL document CHEMBL1201862, “PubChem BioAssay data set” (2004)
The source made the active and inactive calls.

Assays:
Trypsin = Trypsin (Sus scrofa, UniProt P00761); assay: porcine trypsin inhibitors, dose response, selectivity assay for Rce1 protease inhibitor project, biochemical, quenched peptide fluorescence, cherry-pick (AID 488789)
CAAX prenyl protease 2 = biological target: T1, CAAX prenyl protease 2 (Saccharomyces cerevisiae S288c, UniProt Q03530); format: biochemical
T1 sequence (Q03530 whole entry): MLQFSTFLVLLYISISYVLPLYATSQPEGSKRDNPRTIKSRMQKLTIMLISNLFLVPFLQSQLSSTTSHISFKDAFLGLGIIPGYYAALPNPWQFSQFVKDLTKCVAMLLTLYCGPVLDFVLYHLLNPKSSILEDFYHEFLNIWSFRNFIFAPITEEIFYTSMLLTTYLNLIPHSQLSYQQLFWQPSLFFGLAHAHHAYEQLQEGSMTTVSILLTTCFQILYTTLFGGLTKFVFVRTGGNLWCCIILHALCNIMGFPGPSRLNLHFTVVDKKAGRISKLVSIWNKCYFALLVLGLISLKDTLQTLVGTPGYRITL

[1] = NIH-3T3 fibroblast cytotoxicity, dose response, cytotoxicity control, cell-based, fluorescence, Alamar Blue, secondary assay (AID 2327); format: functional;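 further: NIH-3T3 mouse fibroblasts cultured with fluconazole at 8 µg/mL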
Phospholipase A2 = Phospholipase A2 (Homo sapiens, UniProt P04054); format: functional;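 further: confirmatory dose-response counterscreen on phospholipase A2, testing hits that came from an ultra-high-throughput screen for ATG4B inhibitors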
Sequence of Phospholipase A2 (P04054 whole entry): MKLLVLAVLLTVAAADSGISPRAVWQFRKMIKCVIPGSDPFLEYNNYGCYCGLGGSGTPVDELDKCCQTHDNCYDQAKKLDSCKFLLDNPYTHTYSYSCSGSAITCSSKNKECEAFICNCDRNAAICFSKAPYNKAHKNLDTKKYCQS

Cysteine protease ATG4B = Cysteine protease ATG4B (Homo sapiens, UniProt Q9Y4P1); format: functional;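 further: Fluorescence-based dose-response confirmation assay measuring inhibition of ATG4B activity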
Sequence of Cysteine protease ATG4B (Q9Y4P1 whole entry): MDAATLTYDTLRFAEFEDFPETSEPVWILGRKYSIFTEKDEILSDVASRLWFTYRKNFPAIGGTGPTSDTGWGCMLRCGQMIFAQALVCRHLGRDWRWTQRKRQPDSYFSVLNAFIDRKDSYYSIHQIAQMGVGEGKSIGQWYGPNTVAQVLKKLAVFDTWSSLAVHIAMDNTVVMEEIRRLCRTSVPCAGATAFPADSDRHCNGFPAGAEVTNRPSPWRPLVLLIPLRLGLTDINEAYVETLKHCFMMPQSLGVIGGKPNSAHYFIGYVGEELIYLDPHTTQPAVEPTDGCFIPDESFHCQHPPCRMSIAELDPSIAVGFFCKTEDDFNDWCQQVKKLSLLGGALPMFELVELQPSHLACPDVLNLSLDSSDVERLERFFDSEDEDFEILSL

[2] = C. albicans growth with fluconazole, confirmation, fluorescence, retest (AID 2467); format: functional, cell-based
[3] = biological target: DNA dC->dU-editing enzyme APOBEC-3G (Homo sapiens, UniProt Q9HC16); assay: Dose Response confirmation of small molecule APOBEC3G DNA Deaminase Inhibitors via a fluorescence-based single-stranded DNA deaminase assay. [Related pubchem assays (depositor defined):AID493012, AID493028]; format: functional
Sequence of DNA dC->dU-editing enzyme APOBEC-3G (Q9HC16 whole entry): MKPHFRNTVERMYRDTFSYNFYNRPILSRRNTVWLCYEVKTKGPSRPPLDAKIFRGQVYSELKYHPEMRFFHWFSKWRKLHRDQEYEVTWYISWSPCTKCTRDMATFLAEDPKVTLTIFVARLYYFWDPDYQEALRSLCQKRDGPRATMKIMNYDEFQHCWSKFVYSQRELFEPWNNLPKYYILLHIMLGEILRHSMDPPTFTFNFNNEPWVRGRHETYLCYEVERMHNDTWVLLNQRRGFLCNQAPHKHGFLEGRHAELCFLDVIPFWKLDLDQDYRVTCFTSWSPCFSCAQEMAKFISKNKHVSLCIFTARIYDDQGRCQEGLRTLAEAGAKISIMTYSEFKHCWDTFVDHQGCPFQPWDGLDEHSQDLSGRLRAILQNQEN

[4] = biological target: DNA dC->dU-editing enzyme APOBEC-3A (Homo sapiens, UniProt P31941); assay: APOBEC3A DNA deaminase inhibitors, dose response, biochemical (AID 504722); format: functional
Sequence of DNA dC->dU-editing enzyme APOBEC-3A (P31941 whole entry): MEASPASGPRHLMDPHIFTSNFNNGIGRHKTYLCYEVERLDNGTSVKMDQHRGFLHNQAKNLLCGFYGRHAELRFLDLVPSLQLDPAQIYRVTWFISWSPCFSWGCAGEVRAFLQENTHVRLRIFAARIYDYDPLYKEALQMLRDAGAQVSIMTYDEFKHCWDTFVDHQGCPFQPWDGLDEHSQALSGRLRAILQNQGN

[5] = biological target: Polyadenylate-binding protein 1 (Homo sapiens, UniProt P11940); assay: PABP poly(A) RNA binding inhibitors, primary screen, biochemical, fluorescence polarization, uHTS (AID 2014)
[6] = biological target: T2, Heat shock factor protein 1 (Mus musculus, UniProt P38532); assay: inhibition of MG132-induced HSE-luciferase signal, confirmation, cell-based, NIH3T3, luminescence, dose retest (AID 2382); format: functional;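 further: NIH3T3 fibroblasts with HSF1-driven luciferase reporter stressed by proteasome inhibitor MG132; luminescence from HSF1-driven luciferase expression after 8 hours of MG132 stress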
T2 sequence (P38532 whole entry): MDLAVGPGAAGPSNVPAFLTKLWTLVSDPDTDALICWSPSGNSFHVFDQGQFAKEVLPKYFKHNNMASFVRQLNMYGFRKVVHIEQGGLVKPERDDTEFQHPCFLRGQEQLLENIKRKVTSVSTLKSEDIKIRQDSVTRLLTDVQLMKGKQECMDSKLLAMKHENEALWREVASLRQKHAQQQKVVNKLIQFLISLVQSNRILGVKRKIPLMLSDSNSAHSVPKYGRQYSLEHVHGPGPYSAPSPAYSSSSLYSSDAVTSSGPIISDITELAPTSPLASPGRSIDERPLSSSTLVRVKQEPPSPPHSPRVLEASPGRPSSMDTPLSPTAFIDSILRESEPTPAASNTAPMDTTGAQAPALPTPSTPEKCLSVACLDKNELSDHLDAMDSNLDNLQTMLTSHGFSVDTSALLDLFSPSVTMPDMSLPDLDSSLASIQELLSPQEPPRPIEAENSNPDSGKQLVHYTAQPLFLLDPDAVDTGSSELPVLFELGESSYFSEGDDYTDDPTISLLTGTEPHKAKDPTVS

[7] = biological target: Eukaryotic translation initiation factor 4H (Homo sapiens, UniProt Q15056); assay: human eIF4H binding inhibitors, primary screen, translation initiation inhibitor project, biochemical, uHTS, fluorescence polarization (AID 2012)
[8] = biological target: Glucose-6-phosphate 1-dehydrogenase (Homo sapiens, UniProt P11413); assay: human G6PD enzyme inhibitors, dose response, selectivity assay for P. falciparum G6PD inhibitor project, biochemical, fluorescence (AID 504792); format: functional
[9] = biological target: Peroxisome proliferator-activated receptor gamma/Nuclear receptor coactivator 3 (Homo sapiens, UniProt P37231); assay: TR-FRET dose response biochemical High Throughput Screening assay for agonists of the steroid receptor coactivator 3 (SRC-3) recruitment by the peroxisome proliferator-activated receptor gamma (PPAR gamma): non-selective agonists. [Related pubchem assays: 1301 (Confirmation screen.), 1048 (Primary screen.)]; format: functional
Sequence of Peroxisome proliferator-activated receptor gamma/Nuclear receptor coactivator 3 (P37231 whole entry): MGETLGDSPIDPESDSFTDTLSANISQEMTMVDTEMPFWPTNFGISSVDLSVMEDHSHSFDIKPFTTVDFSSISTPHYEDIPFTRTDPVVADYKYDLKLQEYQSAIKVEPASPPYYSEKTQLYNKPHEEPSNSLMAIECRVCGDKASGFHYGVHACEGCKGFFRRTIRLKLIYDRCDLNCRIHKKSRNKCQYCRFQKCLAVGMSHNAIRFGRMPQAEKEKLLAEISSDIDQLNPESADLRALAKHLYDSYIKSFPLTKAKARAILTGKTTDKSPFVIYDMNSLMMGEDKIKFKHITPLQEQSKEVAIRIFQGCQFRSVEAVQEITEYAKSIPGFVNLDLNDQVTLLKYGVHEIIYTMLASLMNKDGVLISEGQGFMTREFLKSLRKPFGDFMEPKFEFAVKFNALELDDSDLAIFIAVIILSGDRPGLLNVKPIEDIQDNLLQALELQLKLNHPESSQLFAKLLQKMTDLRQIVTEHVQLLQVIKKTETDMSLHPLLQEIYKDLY
Sequence of Peroxisome proliferator-activated receptor gamma/Nuclear receptor coactivator 3 (Q9Y6Q9 whole entry, further chain): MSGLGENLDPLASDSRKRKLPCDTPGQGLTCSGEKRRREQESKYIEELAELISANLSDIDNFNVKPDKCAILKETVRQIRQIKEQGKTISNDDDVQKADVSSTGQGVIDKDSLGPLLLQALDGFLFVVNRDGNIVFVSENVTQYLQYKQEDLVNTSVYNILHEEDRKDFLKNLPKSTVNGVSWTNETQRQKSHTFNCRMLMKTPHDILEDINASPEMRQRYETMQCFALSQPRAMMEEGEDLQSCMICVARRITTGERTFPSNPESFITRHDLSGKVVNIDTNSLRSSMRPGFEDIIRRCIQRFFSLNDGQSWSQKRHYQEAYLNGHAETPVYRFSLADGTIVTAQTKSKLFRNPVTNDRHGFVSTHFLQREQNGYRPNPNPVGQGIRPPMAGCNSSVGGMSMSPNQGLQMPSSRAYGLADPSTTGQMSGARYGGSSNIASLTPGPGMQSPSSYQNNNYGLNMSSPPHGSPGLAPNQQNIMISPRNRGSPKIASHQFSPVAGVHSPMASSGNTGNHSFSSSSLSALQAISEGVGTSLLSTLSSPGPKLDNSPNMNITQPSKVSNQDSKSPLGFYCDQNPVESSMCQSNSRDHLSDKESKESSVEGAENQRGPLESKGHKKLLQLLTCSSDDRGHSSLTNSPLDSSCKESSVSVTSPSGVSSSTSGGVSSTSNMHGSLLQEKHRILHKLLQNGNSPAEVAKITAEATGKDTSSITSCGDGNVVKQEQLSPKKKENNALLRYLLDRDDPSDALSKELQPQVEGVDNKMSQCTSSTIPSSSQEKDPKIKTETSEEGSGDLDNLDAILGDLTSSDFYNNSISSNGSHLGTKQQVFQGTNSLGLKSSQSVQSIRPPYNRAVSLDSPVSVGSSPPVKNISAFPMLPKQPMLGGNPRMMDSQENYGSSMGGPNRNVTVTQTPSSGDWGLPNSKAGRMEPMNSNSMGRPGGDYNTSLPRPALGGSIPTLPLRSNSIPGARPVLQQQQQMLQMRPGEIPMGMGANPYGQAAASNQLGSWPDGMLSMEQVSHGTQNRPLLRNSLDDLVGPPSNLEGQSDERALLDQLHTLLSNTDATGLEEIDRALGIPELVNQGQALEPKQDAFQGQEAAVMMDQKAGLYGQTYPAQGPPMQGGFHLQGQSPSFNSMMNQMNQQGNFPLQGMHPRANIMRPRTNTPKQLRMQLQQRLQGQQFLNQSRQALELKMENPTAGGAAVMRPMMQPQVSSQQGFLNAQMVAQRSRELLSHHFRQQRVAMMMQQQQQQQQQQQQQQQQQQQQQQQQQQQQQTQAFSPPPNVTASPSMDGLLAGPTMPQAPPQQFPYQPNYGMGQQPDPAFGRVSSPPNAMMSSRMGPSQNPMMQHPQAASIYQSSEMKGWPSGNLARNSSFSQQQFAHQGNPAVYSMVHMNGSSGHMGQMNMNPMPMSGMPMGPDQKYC

[10] = biological target: Peroxisome proliferator-activated receptor gamma/Nuclear receptor coactivator 2 (Homo sapiens, UniProt P37231); assay: (§1) TR-FRET dose response biochemical High Throughput Screening assay for agonists of the steroid receptor coactivator 2 (SRC-2) recruitment by the peroxisome proliferator-activated receptor gamma (PPAR gamma): non-selective agonists. [Related pubchem assays: 1297, 1032 ]; format: functional
[11] = biological target: Peroxisome proliferator-activated receptor gamma/Nuclear receptor coactivator 1 (Homo sapiens, UniProt P37231); assay: as §1, with “1 (SRC-1)” for “2 (SRC-2)”, “assays (depositor defined):AID1300, AID1808, AID504735, AID631]” for “assays: 1297, 1032 ]”; format: protein assay
Streptokinase A = biological target: T3, Streptokinase A (Streptococcus pyogenes serotype M1, UniProt P10520); assay: S. pyogenes streptokinase expression inhibitors, potency, dose response, plasminogen activation absorbance, OD405 (AID 1914); format: functional, Streptococcus pyogenes M1 GAS;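 further: secreted streptokinase activity via plasminogen activation per viability signal from cell pellet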
T3 sequence (P10520 whole entry): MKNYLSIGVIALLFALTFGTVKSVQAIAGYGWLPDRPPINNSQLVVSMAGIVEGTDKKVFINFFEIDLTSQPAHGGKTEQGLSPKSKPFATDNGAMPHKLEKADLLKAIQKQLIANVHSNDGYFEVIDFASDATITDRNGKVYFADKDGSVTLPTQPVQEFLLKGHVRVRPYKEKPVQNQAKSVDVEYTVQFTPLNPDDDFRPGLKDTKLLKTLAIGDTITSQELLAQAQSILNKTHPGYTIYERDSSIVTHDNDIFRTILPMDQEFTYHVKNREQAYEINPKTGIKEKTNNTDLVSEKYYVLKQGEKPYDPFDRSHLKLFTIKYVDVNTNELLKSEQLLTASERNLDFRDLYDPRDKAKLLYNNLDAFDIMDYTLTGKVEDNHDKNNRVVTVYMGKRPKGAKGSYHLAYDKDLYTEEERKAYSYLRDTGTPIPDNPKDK

[12] = inhibitors of intracellular T. cruzi replication, confirmation, NIH3T3 host cells, beta-gal luminescence (AID 2044); format: functional, cell-based;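 further: intracellular parasites grown in NIH/3T3 mouse fibroblasts as host cells; luminescent beta-galactosidase reporter signal from transgenic T. cruzi replicating inside host cells; inhibitors lower the luminescence signal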
Streptococcus = assay: Group A Streptococcus viability loss, dose response, counter-screen for streptokinase expression inhibitor project, luminescence, BacTiterGlo (AID 1915); format: functional, organism-based;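 further: potency for reduction of bacterial viability or growth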
[13] = test system: Streptococcus sp. 'group A'; assay: growth inhibition of control SK(-) GAS strain, dose response, counter-screen for streptokinase expression inhibitor project, luminescence, kanamycin, BacTiterGlo, confirmation (AID 1900); format: functional, organism-based
[14] = biological target: DNA damage-inducible transcript 3 protein (Mus musculus, UniProt P35639); format: functional, Cricetulus griseus
[15] = cytotoxicity toward NIH3T3 fibroblasts, dose response, counter-screen, cell-based, ATP luminescence, mouse fibroblasts (AID 2010); format: functional;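 further: cells exposed to compound for about 90 hours before reading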
Beta-galactosidase = Beta-galactosidase (Escherichia coli, UniProt Q8VNN2); assay: beta-galactosidase enzyme inhibitors and activators, dose response, artefact control for CCR6 antagonist project, biochemical, E. coli enzyme, set 3 (AID 504712); format: functional
Sequence of Beta-galactosidase (Q8VNN2 whole entry): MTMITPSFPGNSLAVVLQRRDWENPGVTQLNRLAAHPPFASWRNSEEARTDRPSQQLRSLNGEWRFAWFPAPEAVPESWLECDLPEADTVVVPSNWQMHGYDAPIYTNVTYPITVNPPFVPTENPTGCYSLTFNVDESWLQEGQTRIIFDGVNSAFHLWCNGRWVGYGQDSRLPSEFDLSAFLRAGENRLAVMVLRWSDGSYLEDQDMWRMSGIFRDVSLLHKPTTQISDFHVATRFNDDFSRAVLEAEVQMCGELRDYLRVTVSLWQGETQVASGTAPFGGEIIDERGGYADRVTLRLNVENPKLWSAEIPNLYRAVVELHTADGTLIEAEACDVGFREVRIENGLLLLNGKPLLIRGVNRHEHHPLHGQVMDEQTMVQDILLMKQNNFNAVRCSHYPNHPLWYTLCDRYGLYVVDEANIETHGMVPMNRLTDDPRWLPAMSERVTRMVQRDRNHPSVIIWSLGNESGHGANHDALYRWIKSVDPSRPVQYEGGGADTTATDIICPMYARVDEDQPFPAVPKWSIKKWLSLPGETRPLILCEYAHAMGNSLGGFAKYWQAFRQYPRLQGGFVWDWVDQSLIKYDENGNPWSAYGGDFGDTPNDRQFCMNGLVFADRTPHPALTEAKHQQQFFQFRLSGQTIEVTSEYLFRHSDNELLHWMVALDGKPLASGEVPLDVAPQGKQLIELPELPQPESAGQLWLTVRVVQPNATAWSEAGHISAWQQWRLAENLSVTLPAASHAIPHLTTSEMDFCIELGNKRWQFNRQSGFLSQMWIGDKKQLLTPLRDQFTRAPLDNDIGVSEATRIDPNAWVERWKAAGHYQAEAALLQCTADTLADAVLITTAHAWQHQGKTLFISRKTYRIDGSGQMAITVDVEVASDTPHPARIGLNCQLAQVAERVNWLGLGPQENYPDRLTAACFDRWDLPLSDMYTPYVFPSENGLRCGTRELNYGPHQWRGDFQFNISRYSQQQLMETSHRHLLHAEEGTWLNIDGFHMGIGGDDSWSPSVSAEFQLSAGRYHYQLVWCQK

[16] = biological target: C-C chemokine receptor type 6 (Homo sapiens, UniProt P51684); assay: CCR6 receptor antagonists, dose response, cell-based, luminescent beta-arrestin readout (AID 504728); format: functional
Sequence of C-C chemokine receptor type 6 (P51684 whole entry): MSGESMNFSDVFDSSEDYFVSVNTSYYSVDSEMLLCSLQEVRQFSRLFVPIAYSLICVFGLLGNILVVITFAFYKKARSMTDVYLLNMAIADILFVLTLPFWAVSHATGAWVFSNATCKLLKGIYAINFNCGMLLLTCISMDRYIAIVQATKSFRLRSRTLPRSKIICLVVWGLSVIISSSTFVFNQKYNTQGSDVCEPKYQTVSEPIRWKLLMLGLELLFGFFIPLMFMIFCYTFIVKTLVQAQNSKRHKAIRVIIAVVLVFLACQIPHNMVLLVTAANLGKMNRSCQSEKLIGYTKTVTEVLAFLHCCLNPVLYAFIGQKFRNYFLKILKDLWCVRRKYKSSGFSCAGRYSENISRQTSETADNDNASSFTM

[17] = microbe, parasite or virus in culture; format: functional; conditions: Mycobacterium tuberculosis
[18] = inhibitors of clade B AD8 Env fusion, dose response, cell-based, cherry-pick (AID 652062); format: functional;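 further: luciferase signal from cell-cell fusion driven by HIV-1 clade B AD8 Env; potency is for inhibitors of fusion seen as a drop in luminescence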
[19] = cytotoxicity in HPDE-C7 cells, cell-based, fluorescence, HTS (AID 430); format: functional; conditions: Homo sapiens
[20] = inhibitors of HIV Env-driven cell fusion, dose response, cherry-pick (AID 652057); format: functional, cell-based
Insulin-degrading enzyme = biological target: T4, Insulin-degrading enzyme (Homo sapiens, UniProt P14735); assay: Dose Response: Fluorescence polarization-based cell-based high throughput dose response assay for inhibitors of insulin-degrading enzyme (IDE). [Related pubchem assays: 434962 (Primary screen (IDE inhibitors in singlicate)), 449730 (Counterscreen (Cytotoxicity in triplicate)), 435028 (Confirmation (IDE inhibitors in triplicate)), 434984 (Summary …; format: functional
T4 sequence (P14735 whole entry): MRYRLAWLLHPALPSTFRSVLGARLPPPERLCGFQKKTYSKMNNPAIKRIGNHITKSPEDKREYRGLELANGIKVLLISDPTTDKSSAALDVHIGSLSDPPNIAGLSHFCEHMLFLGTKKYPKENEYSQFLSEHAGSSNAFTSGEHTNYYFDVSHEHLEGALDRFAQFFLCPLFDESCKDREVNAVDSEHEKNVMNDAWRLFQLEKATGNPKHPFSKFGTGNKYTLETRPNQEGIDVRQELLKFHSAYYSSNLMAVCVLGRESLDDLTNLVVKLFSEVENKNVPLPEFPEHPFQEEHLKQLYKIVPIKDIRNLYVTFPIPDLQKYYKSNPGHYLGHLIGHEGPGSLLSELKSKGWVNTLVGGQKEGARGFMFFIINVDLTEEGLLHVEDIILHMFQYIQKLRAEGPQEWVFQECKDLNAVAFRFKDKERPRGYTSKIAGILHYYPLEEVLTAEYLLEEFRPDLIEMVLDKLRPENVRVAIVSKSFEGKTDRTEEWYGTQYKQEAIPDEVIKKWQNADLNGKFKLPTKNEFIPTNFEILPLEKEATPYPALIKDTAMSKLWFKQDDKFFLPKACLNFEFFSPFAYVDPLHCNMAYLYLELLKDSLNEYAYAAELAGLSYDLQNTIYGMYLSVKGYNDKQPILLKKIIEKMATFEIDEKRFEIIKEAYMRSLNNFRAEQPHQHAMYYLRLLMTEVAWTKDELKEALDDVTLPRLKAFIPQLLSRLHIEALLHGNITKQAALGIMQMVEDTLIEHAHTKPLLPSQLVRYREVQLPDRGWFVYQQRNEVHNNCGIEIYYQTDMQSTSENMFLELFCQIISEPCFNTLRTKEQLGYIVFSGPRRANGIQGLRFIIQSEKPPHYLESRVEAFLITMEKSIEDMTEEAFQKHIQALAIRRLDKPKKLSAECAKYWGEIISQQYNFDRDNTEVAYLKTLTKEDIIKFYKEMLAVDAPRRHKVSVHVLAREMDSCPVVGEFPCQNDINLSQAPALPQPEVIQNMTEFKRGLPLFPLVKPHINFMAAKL

[21] = cytotoxicity in KRAS-transformed pancreatic duct cells, primary screen, cell-based, fluorescence, HTS (AID 431); format: functional; conditions: Homo sapiens;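 further: cell line used: HPDE-C7K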
[22] = CEM21 lymphoblast cell cytotoxicity, dose response, cytotoxicity control for viral fusion inhibitor project, CellTiter-Glo luminescence, cherry-picked (AID 652042); format: functional, cell-based;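 further: potency for signal decrease meaning cytotoxicity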
[23] = ZM109 Env clade C HIV-1 fusion inhibitors, dose response, HeLa effector, CEM target cells, luciferase, cherry-pick (AID 652058); format: functional, cell-based
[24] = Counterscreen for IDE inhibitors: Luminescence-based cell-based high throughput dose response assay to identify compounds that are cytotoxic to HEK cells. [Related pubchem assays: 434962 (Primary screen (IDE inhibitors in singlicate)), 449730 (Counterscreen (Cytotoxicity in triplicate)), 435028 (Confirmation (IDE inhibitors in triplicate)) …; format: functional; conditions: HEK293
INS1 = assay: beta cell apoptosis inhibitors, cytokine rescue, dose response, luminescence, retest (AID 449756); format: functional, cell-based; conditions: Rattus norvegicus;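 further: cell death triggered by IL-1 beta plus TNF-alpha plus IFN-gamma mixture; protective hits raise ATP signal compared with cytokine alone wells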

Sequence of Trypsin (P00761 whole entry): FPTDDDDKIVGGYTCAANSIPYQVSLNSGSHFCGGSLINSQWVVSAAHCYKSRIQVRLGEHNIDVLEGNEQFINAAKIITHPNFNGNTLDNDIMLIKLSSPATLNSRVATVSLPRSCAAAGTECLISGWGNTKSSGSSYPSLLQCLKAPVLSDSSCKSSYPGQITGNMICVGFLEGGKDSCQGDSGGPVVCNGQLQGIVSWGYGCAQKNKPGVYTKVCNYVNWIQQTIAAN

Nc1ccc2c(C(F)(F)F)cc(C(F)(F)F)nc2n1
AC50 (Trypsin): 10.7 µM (active) | AC50 (CAAX prenyl protease 2): > 100 µM (inactive)

c1ccc(-c2ccc(-c3cn4c(n3)CCC4)cc2)cc1
AC50 (Trypsin): 2.37 µM (active) | AC50 (CAAX prenyl protease 2): 4.15 µM (active)

CCOC(=O)c1c(-c2ccccc2)oc2cc(Br)c(O)c(C=O)c12
EC50 [1]: 4.74 µM (inconclusive) | IC50 (Phospholipase A2): 3.36 µM (active) | IC50 (Cysteine protease ATG4B): 9.27 µM (active) | EC50 [2]: 2.69 µM (active)

C=CCn1c(OCc2ccccc2)n[nH]c1=S
IC50 [3]: 7.3 µM (active) | IC50 [4]: > 100 µM (inactive)

CC(C)Oc1ccc(OCCSc2nc3ccccc3n2CC(=O)O)cc1
IC50 [5]: 11.5 µM (active) | EC50 [6]: > 195 µM (not active) | IC50 [7]: > 100 µM (inactive)

COc1ccccc1NS(=O)(=O)c1cc(NC(=O)c2ccc(Cl)nc2)ccc1N1CCCC1
IC50 [3]: 14.3 µM (active) | IC50 [8]: > 80 µM (inactive) | IC50 [4]: > 100 µM (inactive)

Cn1c(=O)cc(SCC(=O)N2CCN(c3ccccc3)CC2)c2ccccc21
EC50 [9]: > 79.4 µM (not active) | EC50 [10]: 185 µM (not active) | EC50 [11]: > 79.4 µM (inactive)

Cn1c(=O)cc(SCC(=O)N2CCN(c3ccccn3)CC2)c2ccccc21
EC50 [9]: > 79.4 µM (not active) | EC50 [10]: > 79.4 µM (not active) | EC50 [11]: > 79.4 µM (inactive)

COc1ccc(-c2nnc(CSc3nc4ccccc4c(=O)n3CC(C)C)o2)cc1OC
IC50 (Phospholipase A2): 1.19 µM (active) | IC50 (Cysteine protease ATG4B): 6.22 µM (active)

O=C(Nc1ccccc1-c1nc2ccccc2[nH]1)c1sc2ccccc2c1Cl
EC50 (Streptokinase A): > 150 µM (not active) | EC50 [12]: 2.1 µM (active) | EC50 (Streptococcus): > 150 µM (not active) | EC50 [13]: 21.3 µM (active) | Absolute IC50 (CHOP) [14]: 10 µM | EC50 [15]: > 60 µM (inconclusive)

CCCn1c(Nc2nc3ccccc3n2C)nc2ccccc21
IC50 (Beta-galactosidase): > 66.6 µM (inactive) | EC50 [1]: > 160 µM (inconclusive) | IC50 [16]: > 66.6 µM (inactive) | CC50 [17]: 13.4 µM (active) | AC50 [18]: 10.4 µM (active) | EC50 [19]: 6.72 µM (active) | AC50 [20]: 10.1 µM (active) | IC50 (Insulin-degrading enzyme): > 55.9 µM (not active) | EC50 [21]: 7.01 µM (active) | AC50 [22]: 8.31 µM (active) | EC50 [2]: 1.33 µM (active) | AC50 [23]: 8.59 µM (active) | IC50 [24]: 14.4 µM (not active) | AC50 (INS1): 7.73 µM (active)
